The source of these data is PMC8842605, “Novel Derivatives of diphenyl-1,3,4-oxadiazol as Ligands of Benzodiazepine Receptors; Synthesize, Binding Assay and Pharmacological Evaluation” (Iranian Journal of Pharmaceutical Research : IJPR, 2021).

Series [1] concerns pentylenetetrazol-induced seizure. The series can be described thus: Pentylenetetrazol (PTZ) test. In kind it is in vivo. To be noted: Mus musculus, 0.5 h; mice, 30 min after administration; number of dead animals; read-out: ED50 (95% CI), PTZ test. From the text: (§1) Two useful seizure models (MES and PTZ) were organized for evaluation of the anticonvulsant activities of novel synthesized compounds. In these experiments, the capability of novel synthesized compounds to prevent the maximal electro shock-induced seizure and pentylenetetrazol-induced seizure were screened. MES test (60 Hz, 50 mA, 0.2 s) was done according to the method described by Toolabi et al. (2020). PTZ test was done Using the mothed described by Ranjbar-ekbatan et al. (2019). These experiments were applied 30 min after administration of the novel compounds. The number of HLTE (hind limb tonic extension) in the MES test and the number of dead animals in the PTZ test were counted ([30]–[32]).

Series [2] has as its system mice. The series can be described thus: Open field test. The settings on record: Mus musculus, ip, intraperitoneal, 30 min before test, total distance movement, read-out: ED50 (95% CI), Open field test. It counts as in vivo. Here is the method: To the assessment of the sedative effects and locomotor activities of the novel synthesized compounds, the open field test was performed. […] The total distance movement was recorded for 10 min by a digital camera and then was calculated by an automated tracking system (Ethovision XT software, Noldus, The Netherlands) ([24]).

Series [3] addresses benzodiazepine receptor. The series can be described thus: Radioligand competition binding with [3H]-flumazenil. To be noted: rat brain membrane; for IC50: 35 min at 30 °C, read-out: IC50 (95% CI); for Ki: Cheng-Prussof equation. Here is the method: Temporarily, the brain tissue of Male Sprague-Dawley rats (200-250 g weight) were used as the source of the benzodiazepine receptors. These tissues were collected, homogenized in 20 mL of ice‐cold Tris‐HCl buffer and centrifuged at 600 g for 10 min. in the next step, the supernatant was centrifuged 37000xg for 15 min at 4 °C. […] The Bradford method using bovine serum albumin as a standard, was applied for quantification of protein in the separated membrane. Saturation and competition experiments are two basic methods of receptor binding studies. […] NSB was determined in parallel assays performed in the presence of 100 μM diazepam. Competition experiments were used to measure the percentage inhibition of radioligand specific binding (IC50) and affinity (Ki) of the novel synthesized ligands and diazepam, using the Cheng-Prussof equation.

The test system of series [4] is maximal electro shock-induced seizure. The series can be described thus: Maximal electro shock (MES) test. It counts as in vivo. To be noted: Mus musculus, 0.5 h; mice, 30 min after administration; 60 Hz, 50 mA, 0.2 s; HLTE; read-out: ED50 (95% CI), MES test.
Text: as §1

Series [5] concerns mice. The series can be described thus: Pentobarbital induced sleep test. To be noted: Mus musculus, read-out: ED50 (95% CI), Pentobarbital induced Sleeping test.
Series [6] deals with mice. The series can be described thus: Elevated plus maze test. It counts as in vivo. To be noted: Mus musculus, percentage of time spent in open arms, read-out: ED50 (95% CI), Elevated plus maze test. As to the method: To assay the anti-anxiety effects of novel synthesized compounds, the elevated plus-maze test was used. The apparatus of the elevated plus-maze test is prepared of two open arms (30 × 5 × 0.5 cm) and two close arms (30 × 5 × 35 cm) with an open roof and was set at a height of 50 cm above the floor.

Series [7] deals with mice. The series can be described thus: Grip strength test. In kind it is in vivo. To be noted: Mus musculus, 0.5 h, read-out: ED50 (95% CI), Grip strength test. As to the method:
To assessment the muscle relaxant effects of novel synthesized compounds by measuring the maximum force applied to the digital force meter, the grip strength test was prepared. This assessment was guided using the modified method explained by Bachstetter et al. (2014). The test was repeated 3 times for each mouse, 30 min after injection of the novel compounds ([29]).

The subject of series [8] is mice. The series can be described thus: Rotarod test. In kind it is in vivo. The settings on record: 30 min after injection, 6 rpm, 1 min, Diazepam 2 mg/kg. As to the method:
For evaluation of the motor coordination and balance capability, the rotarod test was used. Concisely, 30 min after injection of the novel compounds and Diazepam (2 mg/kg), each animal was located on a rotating rod (6 rpm, 1 min). In this experiment, the average time latency to fall for each animal was noted ([33]).

In series [9] the test system is mice. The series can be described thus: Passive avoidance test. It counts as in vivo. To be noted: Diazepam 2 mg/kg. From the text: To determine the effects of novel synthesized compounds on learning and memory disorder, the passive avoidance test was done. The passive avoidance apparatus consists of two compartments, that one of them is brightly lit (white compartment) and another one is dimly lit (black compartment). A sliding door divides these two compartments. […] After arriving in the black compartment, it was received a mild unpleasant electrical stimulation (0.5 mA for 2 s) through the grid floor. During the test phase, the animal was relocated in the white compartment. However, there was no electric stimulation in the dark compartment. The latency to enter the dark compartment was recounted ([34],[35]).

The mark [10] stands for this setting: mice, 30 min after injection, maximum force.

`O=C(Nc1ccccc1-c1nnc(-c2ccccc2)o1)c1ccccc1` [Compound 7a, N-(2-(5-phenyl-1,3,4-oxadiazol-2-yl)phenyl)benzamide] came in with a melting point of 188 to 189 °C. The ED50 in series [1] was found to be 276 mg/kg. In addition, the median effective dose (ED50) in series [2] amounted to 27.7 mg/kg. Further, in [3], the IC50 worked out at 10.2 nM and the inhibition constant (Ki) worked out at 5.95 nM. Also, in series [4], the ED50 turned out to be 235 mg/kg. Further, the 50% effective dose (ED50) in series [5] was determined as 22.7 mg/kg. The ED50 in series [6] turned out to be 15.3 mg/kg. For the same molecule, the ED50 in series [7] (setting [10]) turned out to be 34.9 mg/kg.

Molecule `O=C(Nc1ccccc1-c1nnc(-c2ccccc2)o1)c1ccc(Cl)cc1` [Compound 7b, 4-chloro-N-(2-(5-phenyl-1,3,4-oxadiazol-2-yl)phenyl)benzamide] returned a melting point of 195 to 197 °C. Further, the median effective dose (ED50) in series [1] was 180 mg/kg. Further, in [2], the ED50 is 21.3 mg/kg. Moreover, in series [3], the half-inhibitory concentration (IC50) is 7.62 nM and affinity was put at a Ki of 4.43 nM. For the same molecule, the ED50 in series [4] was found to be 163 mg/kg. In series [5], the 50% effective dose (ED50) came out at 19.4 mg/kg. Also, in series [6], the ED50 turned out to be 11.8 mg/kg. For the same molecule, the median effective dose (ED50) in series [7] (setting [10]) was 31.5 mg/kg.

`O=C(Nc1ccccc1-c1nnc(-c2ccccc2)o1)c1ccc(F)cc1` [Compound 7c, 4-fluoro-N-(2-(5-phenyl-1,3,4-oxadiazol-2-yl)phenyl)benzamide] displayed a melting point of 189 to 190 °C. For the same molecule, the 50% effective dose (ED50) in series [1] came to 118 mg/kg. The ED50 in series [2] turned out to be 19.7 mg/kg. Besides, in series [3], the IC50 worked out at 6.05 nM and the inhibitory constant (Ki) came to 3.51 nM. Further, in [4], the ED50 turned out to be 105 mg/kg. In addition, in [5], the median effective dose (ED50) was found to be 17.1 mg/kg. The ED50 in series [6] was 13.7 mg/kg. In series [7] (setting [10]), the ED50 was found to be 30.9 mg/kg.

Consider `Cc1ccc(C(=O)Nc2ccccc2-c2nnc(-c3ccccc3)o2)cc1` [Compound 7d, 4-methyl-N-(2-(5-phenyl-1,3,4-oxadiazol-2-yl)phenyl)benzamide], for which the melting point lay within 200 to 202 °C. Moreover, in series [1], the median effective dose (ED50) is 109 mg/kg. Further, in [2], the median effective dose (ED50) came out at 18.8 mg/kg. In addition, in series [3], the concentration for half-maximal inhibition (IC50) is 4.26 nM and the affinity, expressed as Ki, was 2.47 nM. For the same molecule, in series [4], the ED50 amounted to 92.5 mg/kg. Moreover, in [5], the 50% effective dose (ED50) stood at 13.1 mg/kg. Moreover, the 50% effective dose (ED50) in series [6] amounted to 12.6 mg/kg. For the same molecule, the ED50 in [7] (setting [10]) was 29.4 mg/kg.

For `O=C(Nc1ccccc1-c1nnc(-c2ccccc2)o1)c1ccc([N+](=O)[O-])cc1` [Compound 7e, 4-nitro-N-(2-(5-phenyl-1,3,4-oxadiazol-2-yl)phenyl)benzamide], the melting point was in the range of 195 to 197 °C. The 50% effective dose (ED50) in series [1] worked out at 45.2 mg/kg. The ED50 in series [2] was 19.1 mg/kg. For the same molecule, in series [3], the IC50 came to 9.16 nM and the Ki stood at 5.32 nM. The 50% effective dose (ED50) in [4] was determined as 24.2 mg/kg. Also, in series [5], the ED50 turned out to be 19.6 mg/kg. In addition, the 50% effective dose (ED50) in [6] is 9.96 mg/kg. In addition, the 50% effective dose (ED50) in series [7] (setting [10]) stood at 25.7 mg/kg.

On to `COc1ccc(C(=O)Nc2ccccc2-c2nnc(-c3ccccc3)o2)cc1` [Compound 7f, 4-methoxy-N-(2-(5-phenyl-1,3,4-oxadiazol-2-yl)phenyl)benzamide], for which the melting point lay within 216 to 217 °C. Further, in [1], the 50% effective dose (ED50) was 136 mg/kg. Besides, in [2], the ED50 amounted to 14.5 mg/kg. For the same molecule, in series [3], the IC50 worked out at 3.03 nM and the affinity, expressed as Ki, was 1.76 nM. Moreover, the 50% effective dose (ED50) in series [4] came to 136 mg/kg. The ED50 in series [5] is 9.91 mg/kg. For the same molecule, in series [6], the ED50 turned out to be 12.7 mg/kg. In series [7] (setting [10]), the ED50 stood at 26.7 mg/kg.

On to `CC(=O)Nc1ccccc1-c1nnc(-c2ccccc2)o1` [Compound 7g, N-(2-(5-phenyl-1,3,4-oxadiazol-2-yl)phenyl)acetamide], for which the melting point is 155 to 157 °C. The ED50 in series [1] amounted to 147 mg/kg. For the same molecule, the median effective dose (ED50) in [2] came to 14 mg/kg. In series [3], the IC50 is 2.78 nM and the Ki came to 1.61 nM. In series [4], the ED50 came to 186 mg/kg. In addition, in [5], the ED50 was 9.45 mg/kg. In series [6], the ED50 came to 12.8 mg/kg. Also, the ED50 in [7] (setting [10]) is 28.8 mg/kg.

`CCC(=O)Nc1ccccc1-c1nnc(-c2ccccc2)o1` [Compound 7h, N-(2-(5-phenyl-1,3,4-oxadiazol-2-yl)phenyl) propionamide]: the melting point is 163 to 165 °C. Besides, in series [1], the median effective dose (ED50) came out at 136 mg/kg. The median effective dose (ED50) in series [2] amounted to 10.1 mg/kg. Further, in series [3], the 50% inhibitory concentration (IC50) stood at 2.57 nM and the inhibitory constant (Ki) was determined as 1.49 nM. In addition, the ED50 in series [4] is 118 mg/kg. Further, in series [5], the 50% effective dose (ED50) came out at 5.28 mg/kg. For the same molecule, the ED50 in series [6] amounted to 11.8 mg/kg. In addition, the median effective dose (ED50) in series [7] (setting [10]) turned out to be 24.6 mg/kg.

With `O=C(O)c1ccccc1C(=O)Nc1ccccc1-c1nnc(-c2ccccc2)o1` [Compound 7i, 2-((2-(5-phenyl-1,3,4-oxadiazol-2-yl)phenyl)carbamoyl)benzoic acid], the melting point fell in the range of 196 to 198 °C. Moreover, the median effective dose (ED50) in series [1] is 45.1 mg/kg. Also, the ED50 in series [2] was 7.14 mg/kg. The IC50 in series [3] amounted to 1.54 nM. The ED50 in [4] stood at 26.7 mg/kg. Also, the ED50 in series [5] is 4.64 mg/kg. The median effective dose (ED50) in [6] stood at 8.71 mg/kg. Moreover, the median effective dose (ED50) in series [7] (setting [10]) came to 13.2 mg/kg.

For the molecule `O=C(O)CCC(=O)Nc1ccccc1-c1nnc(-c2ccccc2)o1` [Compound 7j, 4-oxo-4-((2-(5-phenyl-1,3,4-oxadiazol-2-yl)phenyl)amino)butanoic acid], the melting point fell in the range of 159 to 160 °C. In addition, in series [1], the median effective dose (ED50) was 60.9 mg/kg. In addition, the ED50 in series [2] amounted to 8.9 mg/kg. In addition, in [3], the concentration for half-maximal inhibition (IC50) was found to be 1.66 nM and the Ki worked out at 0.96 nM. Also, the ED50 in [4] was determined as 40.8 mg/kg. In addition, in series [5], the median effective dose (ED50) is 4.98 mg/kg. Also, the ED50 in [6] was 9.77 mg/kg. In series [7] (setting [10]), the ED50 stood at 17.1 mg/kg.

For `CN1C(=O)CN=C(c2ccccc2)c2cc(Cl)ccc21` [Diazepam, reference compound], the ED50 turned out to be 1.01 mg/kg in [1]; 1.69 mg/kg in series [2]; 1.32 mg/kg in series [4]; 1.98 mg/kg in series [5]; 2.24 mg/kg in series [6]; 2.27 mg/kg in series [7]. Moreover, the “latency to fall in rotarod test vs control” value in [8] is reported as “significant decrease in latency to fall”. Besides, the “latency to enter the dark compartment in passive avoidance test vs control” value in series [9] is given as “significant reduction in latency to enter the dark compartment”. The IC50 in series [3] came out at 1.71 nM. This molecule returned a Ki in [3] of 0.99 nM.
